Consider eleven compounds from patent US20260015350A1, “AZAQUINAZOLINE PAN-KRAS INHIBITORS” (Mirati Therapeutics, Inc., priority 2022, published 2026).

Some results are limits rather than exact numbers.

For experiment [1], the system named is KRas-mediated phosphorylation of ERK in H727 cells. The experiment can be described thus: Inhibition of KRas-mediated phosphorylation of ERK (Cisbio HTRF pERK), H727 cells. The format is cell-based. Particulars: Homo sapiens; for IC50: NCI-H727, H727 cells, HTRF pERK. A digest of the protocol:
(§1)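 Compound treatment lasts 3 hrs on 6,000 seeded cells, testing 10 doses from a 10 uM top concentration in 3-fold decrements at 0.8% final DMSO. Trametinib at 0.2 uM defines the Min signal. Detection is HTRF on cold-lysed cell extracts.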

The target in the next experiment is T1, KRas^G12D (Homo sapiens, UniProt P01116, G12D).
T1 construct: Biotinylated KRas (corresponding to amino acids 1-169, produced at Accelegan Inc.); biotin (biotinylated); purchased Accelegan Inc
T1 sequence (P01116 1-169 isoform P01116-2 G12D): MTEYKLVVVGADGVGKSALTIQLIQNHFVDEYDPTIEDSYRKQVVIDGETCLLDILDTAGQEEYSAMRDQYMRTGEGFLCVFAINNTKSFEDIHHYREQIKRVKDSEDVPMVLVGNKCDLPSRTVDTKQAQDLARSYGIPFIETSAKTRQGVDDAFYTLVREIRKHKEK
The experiment can be described thus: KRas binding assay (TR-FRET tracer displacement), KRas G12D. Background: In TR-FRET formats the signal depends on donor and acceptor labels being close together.

For experiment [2], the system named is KRas-mediated phosphorylation of ERK in PSN1 cells. The experiment in a line: Inhibition of KRas-mediated phosphorylation of ERK (Cisbio HTRF pERK), PSN1 cells. The format is cell-based. To be noted: Homo sapiens. As for the experimental part: (§2) Inhibition of KRas Phosphorylation of ERK (HTRF) by Exemplary Compounds of Formula (I)
(§3) Cisbio HTRF Advanced PERK Assay Catalog #64AERPEH
(§4) Day 1: Seed 6,000 cells/well-25 μl/well in 384-well white solid bottom plate; RPM1_10% FBS. Incubate overnight at 37° C./5% CO2.
(§5) Incubate for 4 hours at room temperature covered.
(§6) Read HTRF using ClarioStar

The target in another experiment is T2, KRas^G12R (Homo sapiens, UniProt P01116, G12R).
T2 construct: Biotinylated KRas (corresponding to amino acids 1-169, produced at Accelegan Inc.); biotin (biotinylated); purchased Accelegan Inc
T2 sequence (P01116 1-169 isoform P01116-2 G12R): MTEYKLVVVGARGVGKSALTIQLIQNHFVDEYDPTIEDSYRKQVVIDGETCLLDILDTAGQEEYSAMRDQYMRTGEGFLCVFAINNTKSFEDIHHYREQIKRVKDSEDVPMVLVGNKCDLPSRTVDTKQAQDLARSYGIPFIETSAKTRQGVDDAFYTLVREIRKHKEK
The experiment can be described thus: KRas binding assay (TR-FRET tracer displacement), KRas G12R.

The subject of experiment [3] is KRas-mediated phosphorylation of ERK in AsPC-1 cells. The experiment can be described thus: Inhibition of KRas-mediated phosphorylation of ERK (Cisbio HTRF pERK), AsPC-1 cells. The format is cell-based. Particulars: Homo sapiens; for IC50: ASPC1, AsPC-1 cells, HTRF pERK. A digest of the protocol:
as §1

Another experiment has as its target T3, KRas^G12V (Homo sapiens, UniProt P01116, G12V).
T3 construct: Biotinylated KRas (corresponding to amino acids 1-169, produced at Accelegan Inc.); biotin (biotinylated); purchased Accelegan Inc
The experiment can be described thus: KRas binding assay (TR-FRET tracer displacement), KRas G12V.

Experiment [4] relates to KRas-mediated phosphorylation of ERK in MKN1 cells. The experiment in a line: Inhibition of KRas-mediated phosphorylation of ERK (Cisbio HTRF pERK), MKN1 cells. The format is cell-based. To be noted: Homo sapiens, MKN-1. As to the method: as §2, §3, §4, §5, §6
The test system of experiment [5] is KRas-mediated phosphorylation of ERK in H460 cells. The experiment in a line: Inhibition of KRas-mediated phosphorylation of ERK (Cisbio HTRF pERK), H460 cells. The format is cell-based. To be noted: Homo sapiens; for IC50: NCI-H460, HTRF pERK. A digest of the protocol:
as §1

The test system of experiment [6] is KRas-mediated phosphorylation of ERK in H358 cells. The experiment can be described thus: Inhibition of KRas-mediated phosphorylation of ERK (Cisbio HTRF pERK), H358 cells. The format is cell-based. Particulars: Homo sapiens; for IC50: NCI-H358, HTRF pERK. A digest of the protocol:
as §1

Experiment [7] relates to KRas-mediated phosphorylation of ERK in A549 cells. The experiment can be described thus: Inhibition of KRas-mediated phosphorylation of ERK (Cisbio HTRF pERK), A549 cells. Particulars: Homo sapiens; for IC50: HTRF pERK. The format is cell-based. A digest of the protocol: (§7)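 Signal read by HTRF (d2/Cryptate antibody pair, 2 hr room-temperature incubation on lysate). Cells: 6,000 per well, 3 hr compound exposure. Titration: 10 uM highest, 3-fold, 10 points.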

Experiment [8] concerns KRas-mediated phosphorylation of ERK in HCT116 cells. The experiment can be described thus: Inhibition of KRas-mediated phosphorylation of ERK (Cisbio HTRF pERK), HCT116 cells. The format is cell-based. To be noted: Homo sapiens; for IC50: HCT-116, HTRF pERK. A digest of the protocol:
as §7

T3 sequence (P01116 1-169 isoform P01116-2 G12V): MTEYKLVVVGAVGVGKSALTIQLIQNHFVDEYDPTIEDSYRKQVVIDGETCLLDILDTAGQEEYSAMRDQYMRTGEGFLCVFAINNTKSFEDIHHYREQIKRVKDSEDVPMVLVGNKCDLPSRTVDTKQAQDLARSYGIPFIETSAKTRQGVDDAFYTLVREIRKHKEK

With `CCc1c(F)ccc2cc(O)cc(-c3ncc4c(N5C[C@H]6C[C@@H](C5)[C@H](O)[C@H]6O)nc(OC[C@@]56CCCN5C[C@H](F)C6)nc4c3F)c12` (single isomer, unassigned) [Example 569], the IC50 was 444 nM in [1]; 5 nM on KRas^G12D; above 10000 nM in [2]; below 2 nM on KRas^G12R; 5110 nM in experiment [3]; below 2 nM at KRas^G12V. The compound further showed a half-inhibitory concentration (IC50) in experiment [4] of 69 nM.

Take `CCc1c(F)ccc2cc(O)cc(-c3ncc4c(N5CCC[C@@]6(CC[S@+]([O-])C6)C5)nc(OC[C@@]56CCCN5C[C@H](F)C6)nc4c3F)c12` (single isomer, unassigned) [Example 624]: the IC50 in [1] is 3990 nM; on KRas^G12D it was 19 nM; in [2], above 10000 nM; at KRas^G12R, 41 nM; in experiment [3], 4030 nM; at KRas^G12V, 17 nM. In experiment [4], this compound yielded an IC50 of 834 nM.

With `CCc1c(F)ccc2cc(O)cc(-c3ncc4c(N5CCC[C@]6(CC[S@+]([O-])C6)C5)nc(OC[C@@]56CCCN5C[C@H](F)C6)nc4c3F)c12` (single isomer, unassigned) [Example 625], the IC50 was 2850 nM in experiment [1]; 21 nM at KRas^G12D; above 10000 nM in experiment [2]; 17 nM at KRas^G12R; 4740 nM in [3]; 10 nM at KRas^G12V. This compound also showed an IC50 in experiment [4] of 195 nM.

`CCc1c(F)ccc2cc(O)cc(-c3ncc4c(N5CC6CCCC(C6)C5)nc(OC[C@@]56CCCN5C[C@H](F)C6)nc4c3F)c12` [Example 551, 4-(4-(3-azabicyclo[3.3.1]nonan-3-yl)-8-fluoro-2-(((2R,7aS)-2-fluorotetrahydro-1H-pyrrolizin-7a(5H)-yl)methoxy)pyrido[4,3-d]pyrimidin-7-yl)-5-ethyl-6-fluoronaphthalen-2-ol]: the IC50 in experiment [1] is 814 nM; at KRas^G12D, 127 nM; in experiment [2], above 10000 nM; on KRas^G12R, 27 nM; in experiment [3], 2500 nM; on KRas^G12V, 32 nM. The same compound registered a half-inhibitory concentration (IC50) in experiment [4] of 1460 nM.

For `CCc1c(F)ccc2cc(O)cc(-c3ncc4c(N5C[C@@H]6OCCN[C@@H]6C5)nc(OC[C@@]56CCCN5C[C@H](F)C6)nc4c3F)c12` [Example 555, 5-ethyl-6-fluoro-4-(8-fluoro-2-(((2R,7aS)-2-fluorotetrahydro-1H-pyrrolizin-7a(5H)-yl)methoxy)-4-(hexahydropyrrolo[3,4-b][1,4]oxazin-6 (2H)-yl)pyrido[4,3-d]pyrimidin-7-yl)naphthalen-2-ol], the 50% inhibitory concentration (IC50) in experiment [1] is above 10000 nM; at KRas^G12D, 2030 nM; in experiment [2], above 10000 nM; on KRas^G12R it was 2030 nM; in experiment [3], above 10000 nM; at KRas^G12V, 512 nM. In experiment [4], this compound came in with an IC50 of 4020 nM.

Take `CCc1c(F)ccc2cc(O)cc(-c3ncc4c(N5CCC[C@@](C)(O)C5)nc(OC[C@]56CCCN5[C@@H](CNS(=O)(=O)N(C)C)CC6)nc4c3F)c12` [Example 787, (R)-1-(7-(8-ethyl-7-fluoro-3-hydroxynaphthalen-1-yl)-8-fluoro-2-(((3R,7aR)-3-(((dimethylsulfamoyl)amino)methyl)tetrahydro-1H-pyrrolizin-7a(5H)-yl)methoxy)pyrido[4,3-d]pyrimidin-4-yl)-3-methylpiperidin-3-ol]: the inhibition at 0.1 µM in experiment [5] (NCI-H460, 3 h, single point, 100 nM compound, 3 hrs) came to 11%; in experiment [6] (NCI-H358, 3 h, single point, 100 nM compound, 3 hrs), 8%; in [1] (NCI-H727, 3 h, single point, 100 nM compound, 3 hrs, H727 cells), 33%; in experiment [7] (A549, 3 h, single point, 100 nM compound, 3 hrs) it was 14%; in [3] (ASPC1, 3 h, single point, 100 nM compound, 3 hrs, AsPC-1 cells) it was 23%; in experiment [8] (HCT-116, 3 h, single point, 100 nM compound, 3 hrs), 9%. The IC50 was determined as 2080 nM in experiment [1]; 4 nM at KRas^G12D; 6 nM on KRas^G12R; 1670 nM in experiment [3]; 3 nM at KRas^G12V.

For `CCc1c(F)ccc2cc(O)cc(-c3ncc4c(N5CCCC6(CC6C#N)C5)nc(OC[C@@]56CCCN5C[C@H](F)C6)nc4c3F)c12` (stereo partly drawn) [Example 851, 5-(7-(8-ethyl-7-fluoro-3-hydroxynaphthalen-1-yl)-8-fluoro-2-(((2R,7aS)-2-fluorotetrahydro-1H-pyrrolizin-7a(5H)-yl)methoxy)pyrido[4,3-d]pyrimidin-4-yl)-5-azaspiro[2.5]octane-1-carbonitrile], the half-maximal inhibitory concentration (IC50) in experiment [5] turned out to be 159 nM; in [6], 264 nM; in experiment [1], 932 nM; on KRas^G12D, 36 nM; on KRas^G12R, 9 nM; in [7], 397 nM. The results for the 50% inhibitory concentration (IC50) (in [3]; at KRas^G12V; in [8]) were 1210 nM, 12 nM and 475 nM, respectively.

As to `CCc1c(F)ccc2cc(O)cc(-c3ncc4c(N5CC6CNC(CO)C6C5)nc(OC[C@@]56CCCN5C[C@H](F)C6)nc4c3F)c12` (stereo partly drawn) [Example 875, 5-ethyl-6-fluoro-4-(8-fluoro-2-(((2R,7aS)-2-fluorotetrahydro-1H-pyrrolizin-7a(5H)-yl)methoxy)-4-(4-(hydroxymethyl)hexahydropyrrolo[3,4-c]pyrrol-2 (1H)-yl)pyrido[4,3-d]pyrimidin-7-yl)naphthalen-2-ol], the 50% inhibitory concentration (IC50) was above 10000 nM in [5]; above 10000 nM in [6]; above 10000 nM in experiment [1]; 17 nM at KRas^G12D; 37 nM on KRas^G12R; above 10000 nM in experiment [7]. Further, the results for the concentration for half-maximal inhibition (IC50) (in [3]; at KRas^G12V; in [8]) were above 10000 nM, 34 nM and above 10000 nM, respectively.

As for `CCOC(=O)C12CCC(CN(c3nc(OC[C@@]45CCCN4C[C@H](F)C5)nc4c(F)c(-c5cc(O)cc6ccc(F)c(CC)c56)ncc34)C1)C2(F)F` (stereo partly drawn) [Example 899, ethyl 3-(7-(8-ethyl-7-fluoro-3-hydroxynaphthalen-1-yl)-8-fluoro-2-(((2R,7aS)-2-fluorotetrahydro-1H-pyrrolizin-7a(5H)-yl)methoxy)pyrido[4,3-d]pyrimidin-4-yl)-8,8-difluoro-3-azabicyclo[3.2.1]octane-1-carboxylate], the IC50 in [5] is 1290 nM; in experiment [6], 1410 nM; in experiment [1] it was 4410 nM; at KRas^G12D it was 692 nM; at KRas^G12R, 66 nM; in experiment [7], 3530 nM. The IC50 in experiment [3] was determined as 5370 nM; on KRas^G12V, 240 nM; in experiment [8], 6690 nM.

For `CCc1c(F)ccc2cc(O)cc(-c3ncc4c(N5CC6CCC(CC(N)=O)(C6)C5)nc(OC[C@@]56CCCN5C[C@H](F)C6)nc4c3F)c12` (stereo partly drawn) [Example 908, 2-(3-(7-(8-ethyl-7-fluoro-3-hydroxynaphthalen-1-yl)-8-fluoro-2-(((2R,7aS)-2-fluorotetrahydro-1H-pyrrolizin-7a(5H)-yl)methoxy)pyrido[4,3-d]pyrimidin-4-yl)-3-azabicyclo[3.2.1]octan-1-yl)acetamide], the IC50 in experiment [5] turned out to be 630 nM; in [6], 707 nM; in experiment [1], 2310 nM; at KRas^G12D, 14 nM; at KRas^G12R it was 8 nM; in experiment [7] it was 1630 nM. The concentration for half-maximal inhibition (IC50) in [3] worked out at 5800 nM; on KRas^G12V it was 6 nM; in experiment [8], 1730 nM.

Take `C[C@@]1(O)CCCN(c2nc(OC[C@@]34CCCN3C[C@H](F)C4)nc3c(F)c(-c4cc(O)cc5ccccc45)ncc23)C1` [Example 917, (R)-1-(8-fluoro-2-(((2R,7aS)-2-fluorotetrahydro-1H-pyrrolizin-7a(5H)-yl)methoxy)-7-(3-hydroxynaphthalen-1-yl)pyrido[4,3-d]pyrimidin-4-yl)-3-methylpiperidin-3-ol]: the IC50 in experiment [5] was 198 nM; in experiment [6], 54 nM; in experiment [1], 223 nM; at KRas^G12D, 4 nM; on KRas^G12R, 12 nM; in experiment [7], 233 nM. Moreover, the results for the IC50 (in experiment [3]; on KRas^G12V; in experiment [8]) were 149 nM, 7 nM and 151 nM, respectively.

As a reminder, the IC50 is the concentration that inhibits the measured activity by half. What is called inhibition is the change of the read-out against control, counted positive when it falls. Low values mean a response near the control, high ones a response far below the control.
